AC50 and EC50 data for eleven compounds are collected here from US20260055083A1, “APOL1 INHIBITORS AND METHODS OF USE” (Maze Therapeutics, Inc., priority 2022, published 2026).

In assay [1] the target is T1, APOL1 G2 (Homo sapiens, UniProt O14791, DEL388-389).
T1 construct: expressed in transfected cells; host or cells: HEK293/T-REx APOL1 G2 clone #2, doxycycline-inducible
T1 sequence (O14791 with tags, fused parts or gaps DEL388-389): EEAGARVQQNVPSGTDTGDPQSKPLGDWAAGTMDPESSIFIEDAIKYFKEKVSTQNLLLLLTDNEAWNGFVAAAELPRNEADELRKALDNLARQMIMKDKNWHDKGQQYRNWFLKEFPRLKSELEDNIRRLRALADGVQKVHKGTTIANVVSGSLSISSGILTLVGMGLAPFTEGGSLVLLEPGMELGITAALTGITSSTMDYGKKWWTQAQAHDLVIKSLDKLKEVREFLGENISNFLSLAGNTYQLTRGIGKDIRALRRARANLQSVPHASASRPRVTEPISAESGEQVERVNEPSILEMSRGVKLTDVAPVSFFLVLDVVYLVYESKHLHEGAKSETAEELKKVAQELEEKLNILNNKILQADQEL
Description: APOL1 G2 FLIPR calcium influx assay (HEK T-REx/GCaMP6f/APOL1 G2 K6.3 cells). The assay is classed as cell-based. To be noted: HEK293 clone expressing GCaMP6f, doxycycline-induced APOL1 G2; prevention of calcium influx; geometric mean of at least 2 assay runs. On the procedure: A HEK293 clonal cell line was generated to stably express GCaMP6f, a genetically encoded calcium indicator, and inducibly express APOL1 G2 (HEK T-REx/GCaMP6f/APOL1 G2 K6.3). Cells were maintained in the following standard complete medium: DMEM with 4.5 g/L glucose and sodium pyruvate (BioWhittaker, Lonza, BE12-614F), supplemented with 10% FBS Performance Plus (Gibco, 16000044), 1% penicillin-streptomycin (BioWhittaker, DE17-602E), 2 mM ultraglutamine-1 (BioWhittaker cat. BE 17-605/U1), 50 μg/mL Zeocin (InvivoGen, ant-zn), 2.5 μg/mL Blasticidin (InvivoGen, ant-bl-5), and 25 μg/mL Hygromycin (InvivoGen, ant-hg). Standard propagation conditions consisted of plating 9×10^6, 4×10^6, 2×10^6 cells in a T225 flasks to be processed after 2, 3, or 4 days, respectively.
A source plate was generated containing 20 serially diluted compounds in DMSO (duplicate 8-point dose response). Next, 0.8 μL of compounds were transferred from the source plate to a destination plate prefilled with 79.2 μL of Ca^2+ free Tyrode's buffer (130 mM NaCl, 5 mM KCl, 1 mM MgCl2, 5 mM NaHCO3, 20 mM HEPES at pH 7.4). The destination plate was placed on a plate shaker (5 seconds at 2000 rpm) to mix. […] All transfer and mixing steps were conducted with an CyBi®-Well dispenser.
Cells were split by gently washing with DPBS (Euroclone, ECB4004L), followed by a 5-minute incubation (humidified, 37° C. with 5% CO2) with trypsin-EDTA solution (Euroclone, ECB3052D). Detached cells were diluted with standard complete medium without selective agents, counted, and plated in a 384 MTP microplate (GR4332CPL, Twin Helix) (10,000 cells/well in 25 μl/well) using a MATRIX WellMate dispenser. Plates were placed into a humidified incubator (37° C. with 5% CO2) overnight. The following day, 20 μL of doxycycline (Sigma, D9891) at 20 ng/mL in standard complete medium was added to cells with a CyBi®Drop dispenser to induce APOL1 G2 expression. After a 6-hour incubation (humidified, 37° C. with 5% CO2), cells were washed 3 times with Ca^2+ free Tyrode's Buffer (130 mM NaCl, 5 mM KCl, 1 mM MgCl2, 5 mM NaHCO3, 20 mM HEPES at pH 7.4) using a BIOTEK Microplate washer, such that 10 μL of buffer remained in each well after the final wash. Assay plates were then stored at room temperature for 10 minutes. Next, 10 μL of diluted compounds were transferred to the assay plate from the 2× compound plate using a CyBi®-Well dispenser. Compound incubation was then carried out at room temperature for 10 minutes. The assay plate was transferred to the […] and 20 μL of 10 mM Ca^2+ (final concentration=5 mM) Tyrode's buffer was injected.
Table B1 below summarizes the data from this experiment. Unless otherwise specified, AC50 and values are reported as the geometric mean of at least 2 assay runs on separate days. Each run represents the average of a technical replicate, where each compound was assayed twice in the same plate. A superscript t symbol indicates a value from the average of a technical replicate from a single assay run, where each compound was assayed twice in the same plate.
The AC50 values in Table B1 below reflect the compound's ability to prevent calcium influx by inhibiting APOL1. […] Compounds in Table B1 are referred to by the corresponding Compound Number in Table 1, which is also referred to in the synthetic examples. When one or more of the numbered compounds are identified by stereochemistry (for example, (R)- or (S)-), the specific stereoisomer for which data is provided in Table B1 may be identified by the elution order of such compound as described in the synthetic examples. To illustrate, Compound 2 is the first-eluting enantiomer of step 4 of Example 1 and Compound 3 is the second-eluting enantiomer of step 4 of Example 1. Further, by way of illustration, Compound 27 is the first-eluting enantiomeric mixture in step 4 of Example 7 and Compound 28 is the second-eluting enantiomeric mixture in step 4 of Example 7. […]

The target of assay [2] is T1, APOL1 G2. Nature of the assay: APOL1 G2 HEK293 rescue of cell death caused by overexpression of APOL1 (CellTiter-Glo). In kind it is cell-based. Conditions: HEK293/T-REx APOL1 G2 clone #2, doxycycline induction, 17 hours, CellTiter-Glo luminescence; reversal of cell death; geometric mean of at least 2 assay runs. On the procedure: A HEK293 clonal cell line overexpressing APOL1 G2 (HEK293/T-REx APOL1 G2/clone #2) was maintained in 1×DMEM-GlutaMax (Gibco, 10569-010) media with 10% tetracycline-free FBS (Takara Bio USA, 631101), 5 μg/mL Blasticidin (Gibco, A1113903), and 100 μg/mL Zeocin (Invitrogen, R25001) in T75 flasks. In preparation for the assay, this media was aspirated and 2 mL of prewarmed TrypLE Express (Gibco, 12605-010) was added to a flask to detach cells. The flask was then incubated (humidified, 37° C. with 5% CO2) for 3-5 minutes. Afterwards, 8 mL of prewarmed cell assay media (1×DMEM-GlutaMax media with 10% tetracycline-free FBS) was added to the trypsinized cells. The suspension was gently mixed, and cells were counted using a Countess Cell Counting Chamber (Invitrogen). The suspension was diluted using cell assay media to generate a working stock solution (166,667 cells/mL). Using a MultiDrop Combi (Thermo Electron Corp), 30 μL (final cell density=5,000 cells/well) of the working stock solution was dispensed into each well of white 384-well assay ready plates (Nunc™, 164610) containing 6 ng/mL doxycycline, to induce APOL1 expression, and compound. All compounds were plated in a duplicate 8-point dilution series that consisted of 3-fold stepwise dilutions (0.5% DMSO final). Assay plates were incubated (humidified, 37° C. with 5% CO2) for 17 hours. After the incubation, the plates were equilibrated at room temperature for 1 hour. Next, 15 μl of CellTiter-Glo® reagent (Promega, G7570) was added to each well using a MultiDrop Combi. Plates were placed on an orbital shaker (500 rpm) for 5 minutes to induce cell lysis and then incubated at room temperature for 10 minutes. Luminescence was measured on an Envision plate reader. Collaborative Drug Discovery software was utilized for graphing data. Plots were generated using a four parameter logistic curve fit.
Table B2 below provides the results from this experiment. Unless otherwise specified, EC50 values are reported as the geometric mean of at least 2 assay runs on separate days. Each run represents the average of a technical replicate, where each compound was assayed twice in the same plate. A superscript t symbol indicates a value from the average of a technical replicate from a single assay run, where each compound was assayed twice in the same plate. Compounds in Table B2 are referred to by the corresponding Compound Number in Table 1, which is also referred to in the synthetic examples. When one or more of the numbered compounds are identified by stereochemistry (for example, (R)- or (S)-), the specific stereoisomer for which data is provided in Table B2 may be identified by the elution order of such compound as described in the synthetic examples. To illustrate, Compound 2 is the first-eluting enantiomer of step 4 of Example 1 and Compound 3 is the second-eluting enantiomer of step 4 of Example 1. Further, by way of illustration, Compound 27 is the first-eluting enantiomeric mixture in step 4 of Example 7 and Compound 28 is the second-eluting enantiomeric mixture in step 4 of Example 7. Then, Compound 27 is separated into Compound 29 (the first-eluting enantiomer) and Compound 30 (the second-eluting enantiomer) in Example 8, and Compound 28 is separated into Compound 31 (the first-eluting enantiomer) and Compound 32 (the second-eluting enantiomer) in Example 8. Absolute stereochemistry of such compounds may be identified by methods known in the art.
Rescue EC50 values reported in Table B2 below represent the half-maximal effective concentration for reversal of cell death caused by overexpression of APOL1.

As to `CC(Cc1cc(Cl)cc(C#N)c1)N1C[C@@H](COc2ccc(S(C)(=O)=O)cc2)[C@H](C)C1` (single isomer, unassigned) [Compound 19, 3-chloro-5-[(2R or 2S)-2-[(3S,4S)-3-[(4-methanesulfonylphenoxy)methyl]-4-methylpyrrolidin-1-yl]propyl]benzonitrile], at APOL1 G2 [1], the AC50 worked out at 444 nM. In addition, on APOL1 G2 [2], the 50% effective concentration (EC50) amounted to 640 nM.

On to `Cc1cc(OC[C@H]2C[C@@H](C)N(CCc3cccc(C#N)c3)C2)cnc1S(C)(=O)=O` (single isomer, unassigned) [Compound 30], for which the AC50 on APOL1 G2 [1] came to 185 nM. Further, the concentration for a half-maximal effect (EC50) at APOL1 G2 [2] amounted to 38.4 nM.

In the case of `C[C@@H]1C[C@H](COc2ccc(S(=O)(=O)CCS(C)(=O)=O)cc2)CN1C1CCc2ccc(C#N)cc2C1` (single isomer, unassigned) [Compound 31], the half-maximal activity concentration (AC50) at APOL1 G2 [1] was 773 nM. The EC50 on APOL1 G2 [2] is 234 nM.

Turning to `C[C@@H]1C[C@H](COc2ccc(S(=O)(=O)CCS(C)(=O)=O)cc2)CN1C1CCc2ccc(C#N)cc2C1` (single isomer, unassigned) [Compound 32], on APOL1 G2 [1], the half-maximal activity concentration (AC50) is 769 nM. For the same compound, at APOL1 G2 [2], the EC50 was found to be 353 nM.

Take `C[C@@H]1C[C@H](COc2ccc(S(=O)(=O)CCS(C)(=O)=O)cc2)CN1C1CCc2ccc(C#N)cc2C1` (single isomer, unassigned) [Compound 33, 7S or 7R)-7-[(2R,4S)-4-{[4-(2-methanesulfonylethanesulfonyl)phenoxy]methyl}-2-methylpyrrolidin-1-yl]-5,6,7,8-tetrahydronaphthalene-2-carbonitrile]: the AC50 on APOL1 G2 [1] is 662 nM. On APOL1 G2 [2], the half-maximal effective concentration (EC50) was 133 nM.

Turning to `C[C@@H]1C[C@H](COc2ccc(S(=O)(=O)CCCS(C)(=O)=O)cc2)CN1C1CCc2ccc(C#N)cc2C1` (single isomer, unassigned) [Compound 34, (7R or 7S)-7-[(2R,4S)-4-{[4-(3-methanesulfonylpropanesulfonyl)phenoxy]methyl}-2-methylpyrrolidin-1-yl]-5,6,7,8-tetrahydronaphthalene-2-carbonitrile], the AC50 on APOL1 G2 [1] turned out to be 951 nM. Moreover, on APOL1 G2 [2], the EC50 stood at 86.9 nM.

As for `C[C@@H]1C[C@H](COc2ccc(S(=O)(=O)CCCS(C)(=O)=O)cc2)CN1C1CCc2ccc(C#N)cc2C1` (single isomer, unassigned) [Compound 35], the AC50 on APOL1 G2 [1] was determined as 948 nM. At APOL1 G2 [2], the concentration giving a half-maximal response (EC50) turned out to be 256 nM.

As to `C[C@@H]1C[C@H](COc2ccc(S(=O)(=O)CCCS(C)(=O)=O)cc2)CN1C1CCc2ccc(C#N)cc2C1` (single isomer, unassigned) [Compound 36, (7S or 7R)-7-[(2R,4S)-4-{[4-(3-methanesulfonylpropanesulfonyl)phenoxy]methyl}-2-methylpyrrolidin-1-yl]-5,6,7,8-tetrahydronaphthalene-2-carbonitrile], the AC50 at APOL1 G2 [1] was 714 nM. Besides, the EC50 on APOL1 G2 [2] came out at 36.3 nM.

For `CN=S(C)(=O)c1ccc(OC[C@H]2C[C@@H](C)N(C3CCc4ccc(C#N)cc4C3)C2)cc1` (single isomer, unassigned) [Compound 38, (7S or 7R)-7-[(2R,4S)-2-methyl-4-({4-[methyl(methylimino)oxo-λ^6-sulfanyl]phenoxy}methyl)pyrrolidin-1-yl]-5,6,7,8-tetrahydronaphthalene-2-carbonitrile], at APOL1 G2 [1], the AC50 came out at 590 nM. In addition, on APOL1 G2 [2], the EC50 is 65 nM.

Regarding `C[C@@H]1C[C@H](COc2ccc(S(=O)(=O)CCCS(C)(=O)=O)cc2)CN1C1CCc2c(C#N)cccc2C1` (single isomer, unassigned) [Compound 41, (6S or 6R)-6-[(2R,4S)-4-{[4-(3-methanesulfonylpropanesulfonyl)phenoxy]methyl}-2-methylpyrrolidin-1-yl]-5,6,7,8-tetrahydronaphthalene-1-carbonitrile], the AC50 on APOL1 G2 [1] was 1180 nM. Further, the concentration giving a half-maximal response (EC50) at APOL1 G2 [2] is 62.8 nM.

For `C[C@@H]1C[C@H](COc2ccc(S(=O)(=O)CCCS(C)(=O)=O)cc2)CN1C1CCc2c(C#N)cccc2C1` (single isomer, unassigned) [Compound 42, (6R or 6S)-6-[(2R,4S)-4-{[4-(3-methanesulfonylpropanesulfonyl)phenoxy]methyl}-2-methylpyrrolidin-1-yl]-5,6,7,8-tetrahydronaphthalene-1-carbonitrile], at APOL1 G2 [1], the concentration at half-maximal activity (AC50) was 1030 nM. For the same compound, on APOL1 G2 [2], the concentration for a half-maximal effect (EC50) amounted to 227 nM.
